{"source": "patent US6706663B2", "about": "“Herbicidal 3-heterocyclic substituted benzisothiazole and benzisoxazole compounds” (Wyeth, priority 2000, dated 2004)", "key": {"[1]": {"test_system": "SAGPY (Sagittaria pygmaea)", "assay": "Flooded paddy, postemergence weed control", "type": "in vivo, L.", "details": "postemergence weeds, rated 3-4 weeks after treatment", "source_text": "(§1) Results of herbicide evaluation are expressed on a rating scale (0-9). The scale is based upon a visual observation of plant stand, vigor, malformation, size, chlorosis and overall plant appearance as compared with a control.\n(§2) Plastic containers containing weeds which are 3 to 5 cm tall and rice seedlings at the 1.5 to 2.5 leaf stage are flooded with water. The water is maintained at 1.5 to 3 cm above the soil surface for the duration of the experiment. Test compounds are applied as aqueous/acetone mixtures 50/50 v/v directly into the flood water to provide the equivalent of about 0.0320 to 0.2500 kg/ha of active ingredient. The treated containers are placed on greenhouse benches and cared for in accordance with conventional greenhouse procedures. Three to four weeks after treatment, the test is terminated and each container is examined and herbicidal effect rated according to the rating system provided in Example 87. The compounds evaluated are identified in Example 87 and plant species used are identified in Example 89."}, "[2]": {"test_system": "IPOHE (Ipomoea hederacea)", "assay": "Preemergence herbicidal evaluation", "type": "in vivo, (L.) Jacq.", "details": "preemergence, rated 4-5 weeks after treatment"}, "GALAP (Galium aparine)": {"test_system": "GALAP (Galium aparine)", "assay": "Postemergence herbicidal evaluation", "type": "in vivo", "summary_of_the_method": "(§3)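 Visual 0–9 injury scores versus control plants, covering stand, vigour, malformation, size, chlorosis and general appearance, taken four to five weeks post-spray and averaged over replicate tests. Plants were sprayed at roughly two weeks old and held on greenhouse benches.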"}, "[3]": {"test_system": "MOOVA (Monochoria vaginalis)", "assay": "Flooded paddy, postemergence weed control", "type": "in vivo, Presl.", "details": "postemergence weeds, rated 3-4 weeks after treatment", "source_text": "as §1, §2"}, "ZEAMX (Corn, Field)": {"test_system": "ZEAMX (Corn, Field)", "assay": "Preemergence herbicidal evaluation", "type": "in vivo, Zea mays, L.", "details": "preemergence, rated 4-5 weeks after treatment"}, "[4]": {"test_system": "SAGPY (Sagittaria pygmaea)", "assay": "Flooded paddy, preemergence weed control", "type": "in vivo, L.", "details": "rated 3-4 weeks after treatment, 0-9 rating scale", "summary_of_the_method": "(§4)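 Seeds or propagules were planted in the top 0.5 cm of silt loam soil and kept flooded 1.5–3 cm above the surface throughout, then held in the greenhouse. Injury was rated visually on a 0–9 scale against untreated controls, covering stand, vigor, malformation, size and chlorosis.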"}, "CYPIR (Cyperus iria) [5]": {"test_system": "CYPIR (Cyperus iria)", "assay": "Flooded paddy, preemergence weed control", "type": "in vivo", "details": "rated 3-4 weeks after treatment, 0-9 rating scale", "summary_of_the_method": "as §4"}, "[6]": {"test_system": "CYPSE (Cyperus serotinus)", "assay": "Flooded paddy, postemergence weed control", "type": "in vivo, Rottb.", "details": "postemergence weeds, rated 3-4 weeks after treatment", "source_text": "as §1, §2"}, "ORYSAT (Rice, Tebonnet) [7]": {"test_system": "ORYSAT (Rice, Tebonnet)", "assay": "Flooded paddy, post-transplant rice tolerance", "type": "in vivo, Oryza sativa, (L.) Tebonnet", "details": "flooded paddy, post-transplant rice, rated 3-4 weeks after treatment, 0-9 rating scale", "summary_of_the_method": "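Seedlings aged ten days are transplanted in pairs into undrained pots of silt loam, which are then flooded to a depth of 1.5 to 3 cm. After herbicide application the pots are kept in a greenhouse with the flood maintained. Plants are rated 0-9 by visual comparison with controls.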"}, "ORYSAT (Rice, Tebonnet) [8]": {"test_system": "ORYSAT (Rice, Tebonnet)", "assay": "Flooded paddy, post-transplant and postemergence rice tolerance", "type": "in vivo, Oryza sativa, (L.) Tebonnet", "details": "post-transplant rice, rated 3-4 weeks after treatment", "source_text": "as §1, §2"}, "[9]": {"test_system": "ECHORC (Echinochloa oryzoides)", "assay": "Flooded paddy, postemergence weed control", "type": "in vivo, Echinochloa oryzoides (Ard.) Fritsch.", "details": "postemergence weeds, rated 3-4 weeks after treatment", "source_text": "as §1, §2"}, "[10]": {"test_system": "ABUTH (Abutilon theophrasti)", "assay": "Postemergence herbicidal evaluation", "type": "in vivo, Medic.", "summary_of_the_method": "as §3"}, "[11]": {"test_system": "AMBEL (Ambrosia artemisifolia)", "assay": "Postemergence herbicidal evaluation", "type": "in vivo, L.", "summary_of_the_method": "as §3"}, "[12]": {"test_system": "CASOB (Cassia obtusifolia)", "assay": "Postemergence herbicidal evaluation", "type": "in vivo, L.", "summary_of_the_method": "as §3"}, "[13]": {"test_system": "CHEAL (Chenopodium album)", "assay": "Postemergence herbicidal evaluation", "type": "in vivo, L.", "summary_of_the_method": "as §3"}, "CYPIR (Cyperus iria) [14]": {"test_system": "CYPIR (Cyperus iria)", "assay": "Flooded paddy, postemergence weed control", "type": "in vivo", "details": "postemergence weeds, rated 3-4 weeks after treatment", "source_text": "as §1, §2"}, "[15]": {"test_system": "GLXMAW (Soybean, Williams)", "assay": "Preemergence herbicidal evaluation", "type": "in vivo, Glycine max, (L.) Merr. cv Williams", "details": "preemergence, rated 4-5 weeks after treatment"}}, "data": [{"smiles": "CCc1cc(-c2nsc3ccc(-n4c(=O)cc(C(F)(F)F)n(C)c4=O)cc23)c(CC)s1", "note": "[Compound 8, 3-[3-(2,5-diethyl-3-thienyl)-1,2-benzisothiazol-5-yl]-1-methyl-6-(trifluoromethyl)uracil]", "values": [{"measurement": "herbicide rating (0-9) SAGPY", "setting": "[1]; 0.0320 kg/ha into flood water", "result": 0.0}, {"measurement": "herbicide rating (0-9) SAGPY", "setting": "[1]; 0.0620 kg/ha into flood water", "result": 0.0}, {"measurement": "herbicide rating (0-9) SAGPY", "setting": "[1]; 0.1250 kg/ha into flood water", "result": 1.0}, {"measurement": "IPOHE preemergence herbicidal rating", "setting": "[2]; Rate 0.0620 kg/ha", "result": 0.0}, {"measurement": "IPOHE preemergence herbicidal rating", "setting": "[2]; Rate 0.1250 kg/ha", "result": 0.0}, {"measurement": "IPOHE preemergence herbicidal rating", "setting": "[2]; Rate 0.2500 kg/ha", "result": 1.0}, {"measurement": "Postemergence herbicidal rating, GALAP", "setting": "GALAP (Galium aparine); rate 0.0320 kg/ha", "result": 3.0}, {"measurement": "Postemergence herbicidal rating, GALAP", "setting": "GALAP (Galium aparine); rate 0.0620 kg/ha", "result": 6.0}, {"measurement": "herbicide rating (0-9) MOOVA", "setting": "[3]; 0.0320 kg/ha into flood water", "result": 4.5}, {"measurement": "herbicide rating (0-9) MOOVA", "setting": "[3]; 0.0620 kg/ha into flood water", "result": 4.5}, {"measurement": "herbicide rating (0-9) MOOVA", "setting": "[3]; 0.1250 kg/ha into flood water", "result": 5.5}, {"measurement": "ZEAMX preemergence herbicidal rating", "setting": "ZEAMX (Corn, Field); Rate 0.0620 kg/ha", "result": 0.0}, {"measurement": "ZEAMX preemergence herbicidal rating", "setting": "ZEAMX (Corn, Field); Rate 0.1250 kg/ha", "result": 0.0}, {"measurement": "ZEAMX preemergence herbicidal rating", "setting": "ZEAMX (Corn, Field); Rate 0.2500 kg/ha", "result": 3.0}, {"measurement": "herbicidal rating, SAGPY", "setting": "[4]; rate 0.0080 kg/ha", "result": 0.0}, {"measurement": "herbicidal rating, SAGPY", "setting": "[4]; rate 0.0320 kg/ha", "result": 0.0}, {"measurement": "herbicidal rating, SAGPY", "setting": "[4]; rate 0.1250 kg/ha", "result": 0.0}, {"measurement": "herbicidal rating, CYPIR", "setting": "CYPIR (Cyperus iria) [5]; rate 0.0080 kg/ha", "result": 8.5}, {"measurement": "herbicidal rating, CYPIR", "setting": "CYPIR (Cyperus iria) [5]; rate 0.0320 kg/ha", "result": 9.0}, {"measurement": "herbicidal rating, CYPIR", "setting": "CYPIR (Cyperus iria) [5]; rate 0.1250 kg/ha", "result": 9.0}, {"measurement": "herbicide rating (0-9) CYPSE", "setting": "[6]; 0.0320 kg/ha into flood water", "result": 0.0}, {"measurement": "herbicide rating (0-9) CYPSE", "setting": "[6]; 0.0620 kg/ha into flood water", "result": 0.0}, {"measurement": "herbicide rating (0-9) CYPSE", "setting": "[6]; 0.1250 kg/ha into flood water", "result": 0.0}, {"measurement": "herbicidal rating, ORYSAT (rice tolerance)", "setting": "ORYSAT (Rice, Tebonnet) [7]; rate 0.0080 kg/ha", "result": 1.0}, {"measurement": "herbicidal rating, ORYSAT (rice tolerance)", "setting": "ORYSAT (Rice, Tebonnet) [7]; rate 0.0320 kg/ha", "result": 1.5}, {"measurement": "herbicidal rating, ORYSAT (rice tolerance)", "setting": "ORYSAT (Rice, Tebonnet) [7]; rate 0.1250 kg/ha", "result": 2.7}, {"measurement": "herbicide rating (0-9) ORYSAT (rice tolerance)", "setting": "ORYSAT (Rice, Tebonnet) [8]; 0.0320 kg/ha into flood water", "result": 1.0}, {"measurement": "herbicide rating (0-9) ORYSAT (rice tolerance)", "setting": "ORYSAT (Rice, Tebonnet) [8]; 0.0620 kg/ha into flood water", "result": 2.0}, {"measurement": "herbicide rating (0-9) ORYSAT (rice tolerance)", "setting": "ORYSAT (Rice, Tebonnet) [8]; 0.1250 kg/ha into flood water", "result": 2.0}, {"measurement": "herbicide rating (0-9) ECHORC", "setting": "[9]; 0.0320 kg/ha into flood water", "result": 3.5}, {"measurement": "herbicide rating (0-9) ECHORC", "setting": "[9]; 0.0620 kg/ha into flood water", "result": 4.0}, {"measurement": "herbicide rating (0-9) ECHORC", "setting": "[9]; 0.1250 kg/ha into flood water", "result": 5.0}, {"measurement": "Postemergence herbicidal rating, ABUTH", "setting": "[10]; rate 0.0320 kg/ha", "result": 9.0}, {"measurement": "Postemergence herbicidal rating, ABUTH", "setting": "[10]; rate 0.0620 kg/ha", "result": 9.0}, {"measurement": "Postemergence herbicidal rating, AMBEL", "setting": "[11]; rate 0.0320 kg/ha", "result": 3.0}, {"measurement": "Postemergence herbicidal rating, AMBEL", "setting": "[11]; rate 0.0620 kg/ha", "result": 6.0}, {"measurement": "Postemergence herbicidal rating, CASOB", "setting": "[12]; rate 0.0320 kg/ha", "result": 1.0}, {"measurement": "Postemergence herbicidal rating, CASOB", "setting": "[12]; rate 0.0620 kg/ha", "result": 1.0}, {"measurement": "Postemergence herbicidal rating, CHEAL", "setting": "[13]; rate 0.0320 kg/ha", "result": 4.0}, {"measurement": "Postemergence herbicidal rating, CHEAL", "setting": "[13]; rate 0.0620 kg/ha", "result": 7.0}, {"measurement": "herbicide rating (0-9) CYPIR", "setting": "CYPIR (Cyperus iria) [14]; 0.0320 kg/ha into flood water", "result": 9.0}, {"measurement": "herbicide rating (0-9) CYPIR", "setting": "CYPIR (Cyperus iria) [14]; 0.0620 kg/ha into flood water", "result": 9.0}, {"measurement": "herbicide rating (0-9) CYPIR", "setting": "CYPIR (Cyperus iria) [14]; 0.1250 kg/ha into flood water", "result": 9.0}, {"measurement": "GLXMAW preemergence herbicidal rating", "setting": "[15]; Rate 0.0620 kg/ha", "result": 0.0}, {"measurement": "GLXMAW preemergence herbicidal rating", "setting": "[15]; Rate 0.1250 kg/ha", "result": 0.0}, {"measurement": "GLXMAW preemergence herbicidal rating", "setting": "[15]; Rate 0.2500 kg/ha", "result": 0.0}]}]}
